Assay results: article PMC10892288, “Early Stage Preclinical Formulation Strategies to Alter the Pharmacokinetic Profile of Two Small Molecule Therapeutics” (Pharmaceuticals, 2024)
≈ marks a conversion by molar mass, not a printed value. Where two headings read alike, the source gives them in different places.

Assays:
[1] = pKa (physiochemical properties); type: physicochemical
From the text: Table 1 Physiochemical properties of […] and […]. | column: […]; […]

[2] = Mouse PK of G7883, PO in MCT vehicle; type: in vivo, female CD-1 mice; settings: for AUC(0-t) / Cmax / Tmax / bioavailability / half-life: female; for AUC(0-t): CD-1, mouse, plasma, po, read-out: AUC0 to 8; for Cmax / Tmax / bioavailability / half-life: CD-1, plasma
Description: (§1) A total of 0.6% w/v Methylcellulose, 0.2% w/v Tween 80 in water (MCT) was prepared by slowly adding Methylcellulose (Methylocel A15 LV; CAS 9004-67-5, Part ID: 64605-500G-F 27.5-31.5% Methoxyl basis, Sigma-Aldrich, St. Louis, MO, USA) in small portions to prevent clumping while stirring into water at 70–80 °C. Once a homogeneous suspension formed, Tween 80 (Polysorbate 80; CAS#9005-65-6 (Polyoxyethylene (20) Sorbitan Monooleate; Tween 80) Part ID: PO138, Spectrum Chemical, New Brunswick, NJ, USA) was added and stirred until fully dissolved. Vehicle was filtered through 0.22 µm PES (Corning REF no. 431098) prior to adding to the compound for dosing. Respective compound was added based on the target concentration to the MCT vehicle and stirred at 35 °C until the power was well-dispersed. Formulations were homogenized through a polytron homogenizer and then sonicated in a water bath sonicator until a homogeneous suspension was achieved.
The pharmacokinetics of G7883 were determined in female CD-1 mice obtained from Charles River Laboratories (Hollister, CA, USA) with a body weight ranging from 20 to 25 g. The pharmacokinetics of G6893 were determined in female C57BL-6 mice (Lingchang/Vital River Laboratory Animal Co., Ltd., Shanghai/Beijing, China) with a body weight ranging from 20 to 35 g. Three mice were given an oral dose of G7883 formulated in 0.6% Methylcellulose, 0.2% Tween80 in water (MCT) at 25 mg/kg and 250 mg/kg with a dosing volume of 10 mL/kg. Food and water were available ad libitum to the animals. Three mice were given an oral dose of G6893 formulated in 0.6% methylcellulose; 0.2% Tween80 in water with pH adjusted to 2.5 at 30 mg/kg and a dose volume of 5 mL/kg. For both compounds, G7883 and G6893, 15 µL of blood was collected serially at 0. 25, 0.5, 1, 2, 4, 6, 8, and 24 h post-dose and diluted in 60 µL of 1.7 mg/mL potassium K2EDTA water. The frozen blood samples were stored at −70 °C or lower until analysis.
(§2) All plasma and cell media concentrations of G7883 and G6893 were determined using liquid chromatography–tandem mass spectrometry after protein precipitation with acetonitrile and injection of the supernatant onto the column (Waters ACQUITY UPLC BEH C18 1.7 μm, 2.1 × 50 mm for G7883 and G6893). The aqueous mobile phase was 0.1% formic acid, 2 mM ammonium formate in water/acetonitrile (v:v, 95:5), and the organic mobile phase was 0.1% formic acid, 2 mM ammonium formate in acetonitrile/water (v:v, 95:5). An AB Sciex API 4000 Triple Quad instrument was used for detecting G7883 and G6893 (Figure S2). The electrospray ionization source in both columns was operated in the positive ion and multiple reaction monitoring (MRM) detection modes. The MRM transitions for G7883 and G6893 were m/z 462.2 (Q1) and 253.10 (Q3) and m/z 454.2 (Q1) and 325.9 (Q3), respectively. The dynamic range of both assays was 0.50–50.0 ng/mL, and the total run time was 1.6 min. The lower limit of quantitation of the assay was […], and the dilution quality control concentration was set at 10 ng/mL with acceptance criteria for accuracy and precision of 25%.
All plasma and cell media concentrations of G7883 were determined using liquid chromatography–tandem mass spectrometry after protein precipitation with acetonitrile and injection of the supernatant onto the column (Phenomenex Kinetex XB-C18, 30 × 2.1 mm, 2.6 µm). The aqueous mobile phase was 10 mM of ammonium formate in water, and the organic mobile phase was 0.1% formic acid in acetonitrile. An AB Sciex API 5500 Triple Quad instrument was used for detecting G7883. The electrospray ionization source in both columns was operated in the positive ion and MRM detection modes. The MRM transitions for G7883 were m/z 462.2 (Q1) and 253.10 (Q3), respectively. The dynamic range of the assay was 0.50–50.0 ng/mL, and the total run time was 2 min. […]

TEAD = test system: TEAD; parameters: method as in PMID 33679401; settings: cellular assays; read-out: half-maximal inhibitory concentration (IC50) in cellular assays; cited from earlier work
[3] = Log P (physiochemical properties); type: physicochemical
[4] = Solubility in phosphate buffer saline (PBS); type: physicochemical; settings: phosphate buffered saline (PBS)
[5] = Mouse PK of G7883, IP in MCT vehicle; type: in vivo, female NSG mice; settings: for AUC(0-t) / Cmax / Tmax / half-life: female, NSG, plasma; for half-life: ip
Description: as §1
G7883 was dosed in three female NSG mice in-house with body weight ranging from 20 to 25 g. Three mice were given an IP dose of G7883 formulated in the MCT vehicle at 50 mpk and 150 mpk with a 5 mL/kg dosing volume. A total of 10 µL of blood was collected serially at 0.25, 0.5, 1, 3, 7, and 24 h post-dose and diluted in 40 µL of the potassium K2EDTA water. The frozen blood samples were stored at −70 °C or lower until analysis.
as §2
All plasma and cell media concentrations of G7883 were determined using liquid chromatography–tandem mass spectrometry after protein precipitation with acetonitrile and injection of the supernatant onto the column (Phenomenex Kinetex XB-C18, 30 × 2.1 mm, 2.6 µm). The aqueous mobile phase was 10 mM of ammonium formate in water, and the organic mobile phase was 0.1% formic acid in acetonitrile. An AB Sciex API 5500 Triple Quad instrument was used for detecting G7883. The electrospray ionization source in both columns was operated in the positive ion and MRM detection modes. The MRM transitions for G7883 were m/z 462.2 (Q1) and 253.10 (Q3), respectively. The dynamic range of the assay was 0.50–50.0 ng/mL, and the total run time was 2 min. The lower limit of quantitation of the assay was […], and the dilution quality control concentration was set at 10 ng/mL with acceptance criteria for accuracy and precision of 25%.

[6] = 250 mg/kg, PO 250 mpk, mean ± SD
[7] = 50 mg/kg, IP 50 mpk, MCT vehicle, mean
[8] = 150 mg/kg, IP 150 mpk, MCT vehicle, mean

**Q.** What does the source list for Cc1nccnc1-c1nn2c(=O)cc(-c3ccc(C4CCCCC4)cc3)[nH]c2c1C(=O)N1CC(CF)C1 [G7883, 5-(4-cyclohexylphenyl)-3-[3-(fluoromethyl)azetidine-1-carbonyl]-2-(3-methylpyrazin-2-yl)-4H-pyrazolo[1,5-a]pyrimidin-7-one]?
**A.** pKa [1]: 5.51; AUC0 to 8 ([2]; PO 250 mpk, mean ± SD, 250 mg/kg): 25.1 ± 5.43 µM·h; AUC(0-t) ([2]; 25 mg/kg, PO 25 mpk, mean ± SD): 1.99 ± 0.4 µM·h; AUC(0-t) [2, 6]: 25 µM·h; Cmax ([2]; 25 mg/kg, PO 25 mpk, mean ± SD): 1.25 ± 0.82 µM; Tmax ([2]; 25 mg/kg, PO 25 mpk, mean ± SD): 0.5 h; bioavailability ([2]; 25 mg/kg, PO 25 mpk, mean ± SD, read-out: F): 6.18 ± 1.24%; half-life ([2]; 25 mg/kg, PO 25 mpk, mean ± SD, read-out: t1/2 (converted)): 2.17 ± 0.73 h; Cmax [2, 6]: 6.85 ± 2.24 µM; Tmax [2, 6]: 0.583 ± 0.382 h; bioavailability ([2]; 250 mg/kg, PO 250 mpk, mean ± SD, read-out: F): 7.8 ± 1.69%; half-life ([2]; 250 mg/kg, PO 250 mpk, mean ± SD, read-out: t1/2 (converted)): 2.74 ± 0.201 h; bioavailability ([2]; PO, 25 to 250 mpk, read-out: bioavailability): ~7%; half-life ([2]; PO, 25 to 250 mpk, read-out: plasma half-life (converted)): 2 h; IC50 (TEAD): 1400 nM; logP [3]: 1.83; solubility [4]: 89 µg/mL (≈ 178 µM); increase of AUC coverage, IP versus PO ([5]; IP 150 mpk compared with PO 250 mpk): approximately 10 fold; t1/2 ([5]; IP 150 mpk, MCT vehicle, mean, 150 mg/kg): 1.53 h; AUC(0-t) [5, 7]: 31.2 µM·h; Cmax [5, 7]: 23.9 µM; Tmax [5, 7]: 1 h; AUC(0-t) [5, 8]: 217 µM·h; Cmax [5, 8]: 69.2 µM; Tmax [5, 8]: 1 h; half-life [5, 7]: 0.895 h; half-life [5, 8]: 1.5 h
